Reference: the NIST ThermoML archive (doi:10.1021/je200811n)
± gives the expanded uncertainty stated by the source.

Details: Liquid, Hot wire method

## F/C=C/C(F)(F)F [trans-1,3,3,3-tetrafluoropropene]
203.15 K
  thermal conductivity: 0.1101 ± 0.00064 W/m/K
203.18 K, 711 kPa
  thermal conductivity: 0.1106 ± 0.0012 W/m/K
203.18 K, 5522 kPa
  thermal conductivity: 0.1124 ± 0.0012 W/m/K
203.18 K, 10459 kPa
  thermal conductivity: 0.114 ± 0.0012 W/m/K
203.18 K, 15332 kPa
  thermal conductivity: 0.1155 ± 0.0013 W/m/K
203.18 K, 20782 kPa
  thermal conductivity: 0.1173 ± 0.0013 W/m/K
203.28 K, 739 kPa
  thermal conductivity: 0.1103 ± 0.0012 W/m/K
203.28 K, 5531 kPa
  thermal conductivity: 0.112 ± 0.0012 W/m/K
203.28 K, 10473 kPa
  thermal conductivity: 0.1137 ± 0.0012 W/m/K
203.29 K, 15354 kPa
  thermal conductivity: 0.1152 ± 0.0013 W/m/K
203.29 K, 20780 kPa
  thermal conductivity: 0.1169 ± 0.0013 W/m/K
203.54 K, 5526 kPa
  thermal conductivity: 0.1122 ± 0.0012 W/m/K
203.54 K, 10469 kPa
  thermal conductivity: 0.1137 ± 0.0012 W/m/K
203.55 K, 747 kPa
  thermal conductivity: 0.1104 ± 0.0012 W/m/K
203.55 K, 15371 kPa
  thermal conductivity: 0.1153 ± 0.0013 W/m/K
203.56 K, 20781 kPa
  thermal conductivity: 0.1169 ± 0.0013 W/m/K
203.67 K, 5527 kPa
  thermal conductivity: 0.1118 ± 0.0012 W/m/K
203.67 K, 10483 kPa
  thermal conductivity: 0.1135 ± 0.0012 W/m/K
203.67 K, 15392 kPa
  thermal conductivity: 0.1149 ± 0.0012 W/m/K
203.67 K, 20820 kPa
  thermal conductivity: 0.1167 ± 0.0013 W/m/K
203.68 K, 729 kPa
  thermal conductivity: 0.11 ± 0.0012 W/m/K
203.94 K, 20822 kPa
  thermal conductivity: 0.1168 ± 0.0013 W/m/K
203.95 K, 15357 kPa
  thermal conductivity: 0.1149 ± 0.0012 W/m/K
203.96 K, 5536 kPa
  thermal conductivity: 0.1119 ± 0.0012 W/m/K
203.96 K, 10470 kPa
  thermal conductivity: 0.1136 ± 0.0012 W/m/K
203.97 K, 733 kPa
  thermal conductivity: 0.1102 ± 0.0012 W/m/K
204.1 K, 15343 kPa
  thermal conductivity: 0.1146 ± 0.0012 W/m/K
204.1 K, 20832 kPa
  thermal conductivity: 0.1164 ± 0.0013 W/m/K
204.11 K, 5538 kPa
  thermal conductivity: 0.1115 ± 0.0012 W/m/K
204.11 K, 10474 kPa
  thermal conductivity: 0.1133 ± 0.0012 W/m/K
204.12 K, 727 kPa
  thermal conductivity: 0.1098 ± 0.0012 W/m/K
204.38 K, 20839 kPa
  thermal conductivity: 0.1166 ± 0.0013 W/m/K
204.39 K, 15379 kPa
  thermal conductivity: 0.1146 ± 0.0012 W/m/K
204.4 K, 10465 kPa
  thermal conductivity: 0.1133 ± 0.0012 W/m/K
204.41 K, 5532 kPa
  thermal conductivity: 0.1118 ± 0.0012 W/m/K
204.42 K, 727 kPa
  thermal conductivity: 0.11 ± 0.0012 W/m/K
204.56 K, 15381 kPa
  thermal conductivity: 0.1145 ± 0.0012 W/m/K
204.56 K, 20849 kPa
  thermal conductivity: 0.1163 ± 0.0013 W/m/K
204.57 K, 10473 kPa
  thermal conductivity: 0.113 ± 0.0012 W/m/K
204.59 K, 5544 kPa
  thermal conductivity: 0.1114 ± 0.0012 W/m/K
204.62 K, 736 kPa
  thermal conductivity: 0.1094 ± 0.0012 W/m/K
204.85 K, 20860 kPa
  thermal conductivity: 0.1164 ± 0.0013 W/m/K
204.87 K, 15409 kPa
  thermal conductivity: 0.1147 ± 0.0012 W/m/K
204.88 K, 10437 kPa
  thermal conductivity: 0.1131 ± 0.0012 W/m/K
204.9 K, 5524 kPa
  thermal conductivity: 0.1115 ± 0.0012 W/m/K
204.92 K, 744 kPa
  thermal conductivity: 0.1095 ± 0.0012 W/m/K
205.05 K, 20874 kPa
  thermal conductivity: 0.116 ± 0.0013 W/m/K
205.06 K, 15407 kPa
  thermal conductivity: 0.1143 ± 0.0012 W/m/K
205.09 K, 10456 kPa
  thermal conductivity: 0.1127 ± 0.0012 W/m/K
205.1 K, 5515 kPa
  thermal conductivity: 0.1111 ± 0.0012 W/m/K
205.13 K, 719 kPa
  thermal conductivity: 0.1088 ± 0.0012 W/m/K
213.15 K
  thermal conductivity: 0.1064 ± 0.00063 W/m/K
221.66 K, 461 kPa
  thermal conductivity: 0.1031 ± 0.0011 W/m/K
221.67 K, 5469 kPa
  thermal conductivity: 0.1047 ± 0.0011 W/m/K
221.74 K, 21449 kPa
  thermal conductivity: 0.1111 ± 0.0012 W/m/K
221.76 K, 463 kPa
  thermal conductivity: 0.1036 ± 0.0011 W/m/K
221.76 K, 5431 kPa
  thermal conductivity: 0.1048 ± 0.0011 W/m/K
221.76 K, 10410 kPa
  thermal conductivity: 0.1068 ± 0.0012 W/m/K
221.76 K, 15721 kPa
  thermal conductivity: 0.1089 ± 0.0012 W/m/K
221.84 K, 21448 kPa
  thermal conductivity: 0.1108 ± 0.0012 W/m/K
221.86 K, 15726 kPa
  thermal conductivity: 0.1087 ± 0.0012 W/m/K
221.88 K, 10573 kPa
  thermal conductivity: 0.1069 ± 0.0012 W/m/K
222.06 K, 464 kPa
  thermal conductivity: 0.1022 ± 0.0011 W/m/K
222.06 K, 10416 kPa
  thermal conductivity: 0.1071 ± 0.0012 W/m/K
222.08 K, 5404 kPa
  thermal conductivity: 0.1049 ± 0.0011 W/m/K
222.12 K, 21441 kPa
  thermal conductivity: 0.1109 ± 0.0012 W/m/K
222.15 K, 15723 kPa
  thermal conductivity: 0.1088 ± 0.0012 W/m/K
222.18 K, 10370 kPa
  thermal conductivity: 0.1067 ± 0.0012 W/m/K
222.19 K, 465 kPa
  thermal conductivity: 0.103 ± 0.0011 W/m/K
222.19 K, 5436 kPa
  thermal conductivity: 0.1046 ± 0.0011 W/m/K
222.24 K, 21442 kPa
  thermal conductivity: 0.1106 ± 0.0012 W/m/K
222.27 K, 15726 kPa
  thermal conductivity: 0.1085 ± 0.0012 W/m/K
222.3 K, 10660 kPa
  thermal conductivity: 0.1066 ± 0.0011 W/m/K
222.49 K, 10407 kPa
  thermal conductivity: 0.1072 ± 0.0012 W/m/K
222.5 K, 470 kPa
  thermal conductivity: 0.1023 ± 0.0011 W/m/K
222.5 K, 5467 kPa
  thermal conductivity: 0.105 ± 0.0011 W/m/K
222.5 K, 10293 kPa
  thermal conductivity: 0.1066 ± 0.0011 W/m/K
222.54 K, 21423 kPa
  thermal conductivity: 0.1106 ± 0.0012 W/m/K
222.57 K, 15731 kPa
  thermal conductivity: 0.1085 ± 0.0012 W/m/K
222.64 K, 10411 kPa
  thermal conductivity: 0.1065 ± 0.0011 W/m/K
222.65 K, 468 kPa
  thermal conductivity: 0.1027 ± 0.0011 W/m/K
222.65 K, 5467 kPa
  thermal conductivity: 0.1046 ± 0.0011 W/m/K
222.68 K, 21432 kPa
  thermal conductivity: 0.1103 ± 0.0012 W/m/K
222.72 K, 15730 kPa
  thermal conductivity: 0.1082 ± 0.0012 W/m/K
222.97 K, 10413 kPa
  thermal conductivity: 0.1065 ± 0.0012 W/m/K
222.99 K, 5478 kPa
  thermal conductivity: 0.1038 ± 0.0011 W/m/K
223 K, 470 kPa
  thermal conductivity: 0.1026 ± 0.0011 W/m/K
223 K, 21446 kPa
  thermal conductivity: 0.1104 ± 0.0012 W/m/K
223.04 K, 15727 kPa
  thermal conductivity: 0.1083 ± 0.0012 W/m/K
223.15 K, 10394 kPa
  thermal conductivity: 0.1061 ± 0.0012 W/m/K
223.15 K
  thermal conductivity: 0.1024 ± 0.0006 W/m/K
223.16 K, 5476 kPa
  thermal conductivity: 0.1042 ± 0.0011 W/m/K
223.18 K, 469 kPa
  thermal conductivity: 0.1021 ± 0.0011 W/m/K
223.18 K, 21443 kPa
  thermal conductivity: 0.11 ± 0.0012 W/m/K
223.22 K, 15728 kPa
  thermal conductivity: 0.108 ± 0.0012 W/m/K
223.49 K, 10439 kPa
  thermal conductivity: 0.1055 ± 0.0011 W/m/K
223.5 K, 21421 kPa
  thermal conductivity: 0.1101 ± 0.0012 W/m/K
223.52 K, 5475 kPa
  thermal conductivity: 0.105 ± 0.0011 W/m/K
223.55 K, 15715 kPa
  thermal conductivity: 0.1081 ± 0.0012 W/m/K
223.7 K, 10408 kPa
  thermal conductivity: 0.1058 ± 0.0011 W/m/K
223.71 K, 21432 kPa
  thermal conductivity: 0.1098 ± 0.0012 W/m/K
223.73 K, 5485 kPa
  thermal conductivity: 0.104 ± 0.0011 W/m/K
223.75 K, 474 kPa
  thermal conductivity: 0.1022 ± 0.0011 W/m/K
223.76 K, 15729 kPa
  thermal conductivity: 0.1077 ± 0.0012 W/m/K
233.15 K
  thermal conductivity: 0.0984 ± 0.0006 W/m/K
241.49 K, 10379 kPa
  thermal conductivity: 0.09991 ± 0.0011 W/m/K
241.51 K, 15379 kPa
  thermal conductivity: 0.1018 ± 0.0011 W/m/K
241.52 K, 20702 kPa
  thermal conductivity: 0.1042 ± 0.0011 W/m/K
241.53 K, 5318 kPa
  thermal conductivity: 0.09771 ± 0.0011 W/m/K
241.56 K, 614 kPa
  thermal conductivity: 0.09561 ± 0.001 W/m/K
241.59 K, 10369 kPa
  thermal conductivity: 0.0996 ± 0.0011 W/m/K
241.6 K, 15368 kPa
  thermal conductivity: 0.1014 ± 0.0011 W/m/K
241.61 K, 20709 kPa
  thermal conductivity: 0.1038 ± 0.0011 W/m/K
241.62 K, 5325 kPa
  thermal conductivity: 0.09743 ± 0.0011 W/m/K
